Assay results taken from ChEMBL document CHEMBL1201862, “PubChem BioAssay data set” (2004).
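Five compound concentrations were applied to cells in 96-well plates for 48 hours; endpoints were derived by simple linear interpolation of the resulting dose-response curve. Here, GI50 denotes the concentration required for 50% inhibition of growth.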 Calls of active or inactive are those of the source. Cut-off read from the data, not from the text of the source: active = GI50 up to about 1.1 µM and inactive = higher.

Tests used:
Experiment in all cases: DTP human tumour cell line panel, 48 h
[1] = tested on: ACHN
[2] = tested on: MDA-MB-231
[3] = tested on: RXF 393
[4] = tested on: HCT-116
[5] = tested on: HL-60
[6] = tested on: RPMI-8226
[7] = tested on: SF-295
[8] = tested on: SK-MEL-5
[9] = tested on: 786-0
[10] = tested on: T47D
[11] = tested on: DU-145
[12] = tested on: KM12
[13] = tested on: MDA-N
[14] = tested on: TK-10
[15] = tested on: UACC-257
[16] = tested on: OVCAR-8
[17] = tested on: HT-29
[18] = tested on: SK-MEL-28
[19] = tested on: NCI/ADR-RES
[20] = tested on: Malme-3M
[21] = tested on: UACC-62
[22] = tested on: A549
[23] = tested on: OVCAR-3
[24] = tested on: SN12C
[25] = tested on: A498
[26] = tested on: LOX IMVI
[27] = tested on: SW-620
[28] = tested on: OVCAR-4
[29] = tested on: NCI-H23
[30] = tested on: MOLT-4
[31] = tested on: PC-3
[32] = tested on: EKVX
[33] = tested on: SNB-75
[34] = tested on: M14
[35] = tested on: HCT-15
[36] = tested on: U-251
[37] = tested on: HOP-92
[38] = tested on: BT-549
[39] = tested on: SF-539
[40] = tested on: COLO 205
[41] = tested on: OVCAR-5
[42] = tested on: SK-OV-3
[43] = tested on: NCI-H522
[44] = tested on: NCI-H226
[45] = tested on: SK-MEL-2
[46] = tested on: MDA-MB-435
[47] = tested on: UO-31
[48] = tested on: SNB-19
[49] = tested on: NCI-H460
[50] = tested on: SF-268

With `CCOC(=O)c1cc(Br)c(-c2cc(C)no2)[nH]1` the GI50 [1] was 28.8 µM (inactive), the GI50 [2] was 29.2 µM (inactive) and the GI50 [3] was 31 µM (inactive). The GI50 [4] was 27.3 µM (inactive), the GI50 [5] was 24.7 µM (inactive) and the GI50 [6] was 13.9 µM (inactive). The GI50 [7] was 31.1 µM (inactive), the GI50 [8] was 21.7 µM (inactive) and the GI50 [9] was 43.7 µM (inactive). The GI50 [10] was 28.1 µM (inactive), the GI50 [11] was 20.5 µM (inactive) and the GI50 [12] was 10.1 µM (inactive). For the same molecule, the GI50 [13] was 23.2 µM (inactive), the GI50 [14] was 46.5 µM (inactive) and the GI50 [15] was 28.1 µM (inactive). The GI50 [16] was 35.8 µM (inactive), the GI50 [17] was 41.6 µM (inactive) and the GI50 [18] was 32.4 µM (inactive). For the same molecule, the GI50 [19] was 30.4 µM (inactive), the GI50 [20] was 20.9 µM (inactive) and the GI50 [21] was 35.2 µM (inactive). The GI50 [22] was 24.9 µM (inactive), the GI50 [23] was 21.3 µM (inactive) and the GI50 [24] was 32 µM (inactive). The GI50 [25] was 20.2 µM (inactive), the GI50 [26] was 31.3 µM (inactive) and the GI50 [27] was 30 µM (inactive). The GI50 [28] was 23.3 µM (inactive), the GI50 [29] was 24.4 µM (inactive) and the GI50 [30] was 82 µM (inactive). For the same molecule, the GI50 [31] was 28.4 µM (inactive), the GI50 [32] was 34.8 µM (inactive) and the GI50 [33] was 23.9 µM (inactive). The GI50 [34] was 39.7 µM (inactive), the GI50 [35] was 25 µM and the GI50 [36] was 25.5 µM (inactive). The GI50 [37] was 29.9 µM (inactive), the GI50 [38] was 31.2 µM (inactive) and the GI50 [39] was 33.8 µM (inactive). For the same molecule, the GI50 [40] was 19.8 µM (inactive), the GI50 [41] was 49 µM (inactive) and the GI50 [42] was 41.6 µM (inactive). The GI50 [43] was 20.7 µM (inactive), the GI50 [44] was 31 µM (inactive) and the GI50 [45] was 34.4 µM (inactive). For the same molecule, the GI50 [46] was 14.3 µM (inactive), the GI50 [47] was 29.1 µM (inactive) and the GI50 [48] was 80.4 µM (inactive). For the same molecule, the GI50 [49] was 21.1 µM (inactive) and the GI50 [50] was 31.6 µM (inactive).
